# Reference: PMC10384011, “m-Terphenylamines, Acting as Selective COX-1 Inhibitors, Block Microglia Inflammatory Response and Exert Neuroprotective Activity” (Molecules, 2023)
# Legend:
# BV2 microglia cells = assay: LPS-induced activated (ramified) phenotype of BV2 microglia; assay type: cell-based; conditions: 3 μM, LPS 1 μg/mL, 24 h
# Excerpt: Next, we set out to study the changes in microglia phenotype under this toxicity protocol. As mentioned above, microglia are comprised of variable morphology cells that are always adapting to the surrounding media and, therefore, to physiopathological conditions. Indeed, morphological appearance is well correlated with the different states of microglia activation. The microglia-activated phenotype (M1), which is the classical state of this kind of cell in response to proinflammatory insults such as LPS, is linked with the overexpression of a plethora of cytokines and inflammatory markers, namely TNF, IL-1β, IL-6, MCP-1 or CD11b. All of these markers are commonly associated with morphological changes towards an amoeboid phenotype in primary cultures or in in vivo studies. Nevertheless, it has been recently described that BV2 microglia, as well as macrophages, turn from rounded to spindle-shaped or multipolar phenotypes in response to various M1 proinflammatory stimuli such as LPS/IFNγ or spinal cord injury conditioned media. In this context, we assessed the ability of our compounds to prevent the morphological changes induced by LPS by analyzing the percentage of BV2 ramified cells (multipolar or spindle) over the total BV2 per field following cell incubation with our compounds and 1 μg/mL LPS for 24 h.
# Cultures were seeded into flasks containing supplemented medium and kept at 37 °C in a humidified atmosphere of 5% CO2 and 95% air. For assays, BV-2 cells were subcultured in 48-well plates at a seeding density of 1 × 10^5 cells per well. Cells were treated with LPS (Sigma-Aldrich, Madrid, Spain) for 24 or 48 h before confluence in RPMI with 1% FBS.
# [1] = test system: organotypic hippocampal cultures (OHCs); assay: Cell death (propidium iodide uptake, CA1) in organotypic hippocampal cultures treated with LPS; assay type: cell-based, Sprague-Dawley rats; conditions: LPS 1 μg/mL, 24 h
# Protocol: With these promising data in hand, we selected compound 3b for its study in a more complex preparation. In vivo administration of LPS produces a proinflammatory cascade that causes memory deficits, an increase of inflammatory markers, and impairment of hippocampal glutamatergic transmission, contributing to neuronal death. All of these functional changes have been described to take place mainly in the hippocampus region. Thus, we subjected organotypic hippocampal cultures (OHCs) to LPS (1 μg/mL) to assess the protective effect of COX-1 inhibition. This kind of explant allows us to study the microglia-neuron network in a more complex and physiological model of cerebral insult.
# OHCs were conducted on 8–10-day-old Sprague-Dawley rats supplied by the animal facilities of Universidad Autónoma de Madrid (Madrid, Spain). Cultures were prepared according to the methods described by Stoppini et al. with some modifications. […]
# Cell death was determined in the CA1 region by staining the OHCs with propidium iodide (PI). Thirty minutes before analyzing fluorescence, slices were incubated with PI (1 µg/mL). Fluorescence was measured in an epifluorescence Olympus BX50WI microscope. […] Fluorescence was measured in each slice using ImageJ.
smiles,measurement,setting,value
"Cc1ccc(-c2cc(N)cc(-c3ccccc3)c2)cc1 [Compound 3b, 4-Methyl-5′-amino-m-terphenyl]",Reduction of the number of BV2 ramified cells,BV2 microglia cells,60%
same,Cell death (PI uptake in CA1) induced by LPS,[1],reduced cell death induced by LPS almost to basal levels
